Laboratory results published in ChEMBL document CHEMBL1201862, “PubChem BioAssay data set” (2004).
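Grown in 96-well plates, cells were treated for 48 hours with each compound at five concentrations. Insufficient inhibition: endpoint recorded as highest concentration tested. GI50 = concentration required for 50% inhibition of growth.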 Active and inactive are the calls of the source. Cut-off read from the data, not from the text of the source: active = GI50 up to about 1.1 µM and inactive = higher.

Legend:
Experiment in all cases: NCI tumour cell line growth inhibition, 48 h
SF-295 = system: SF-295
NCI-H522 = system: NCI-H522
LOX IMVI = system: LOX IMVI
OVCAR-5 = system: OVCAR-5
BT-549 = system: BT-549
KM12 = system: KM12
HL-60 = system: HL-60
MDA-MB-231 = system: MDA-MB-231
Hs-578T = system: Hs-578T
COLO 205 = system: COLO 205
NCI/ADR-RES = system: NCI/ADR-RES
HOP-62 = system: HOP-62
DU-145 = system: DU-145
RXF 393 = system: RXF 393
SW-620 = system: SW-620
SF-268 = system: SF-268
CAKI-1 = system: CAKI-1
NCI-H460 = system: NCI-H460
M14 = system: M14

C=CCSc1nc2c(N)ncnc2n1C1OC(CO)C(O)C1O (centres undefined)
GI50 (SF-295): > 100 µM (inactive) | GI50 (NCI-H522): > 100 µM (inactive) | GI50 (LOX IMVI): > 100 µM (inactive) | GI50 (OVCAR-5): > 100 µM (inactive) | GI50 (BT-549): > 100 µM (inactive) | GI50 (KM12): 80.2 µM (inactive) | GI50 (HL-60): > 100 µM (inactive) | GI50 (MDA-MB-231): > 100 µM (inactive) | GI50 (Hs-578T): > 100 µM (inactive) | GI50 (COLO 205): > 100 µM (inactive) | GI50 (NCI/ADR-RES): > 100 µM (inactive) | GI50 (HOP-62): > 100 µM (inactive) | GI50 (DU-145): > 100 µM (inactive) | GI50 (RXF 393): > 100 µM (inactive) | GI50 (SW-620): > 100 µM (inactive) | GI50 (SF-268): > 100 µM (inactive) | GI50 (CAKI-1): > 100 µM (inactive) | GI50 (NCI-H460): > 100 µM (inactive) | GI50 (M14): > 100 µM (inactive)

N#CCN(CC#N)C1CC=CCC1N(CC#N)CC#N (centres undefined)
GI50 (SF-295): > 100 µM (inactive) | GI50 (NCI-H522): > 100 µM (inactive) | GI50 (LOX IMVI): > 100 µM (inactive) | GI50 (OVCAR-5): > 100 µM (inactive) | GI50 (BT-549): > 100 µM (inactive) | GI50 (KM12): > 100 µM (inactive) | GI50 (HL-60): > 100 µM (inactive) | GI50 (MDA-MB-231): > 100 µM (inactive) | GI50 (Hs-578T): > 100 µM (inactive) | GI50 (COLO 205): > 100 µM (inactive) | GI50 (NCI/ADR-RES): > 100 µM (inactive) | GI50 (HOP-62): > 100 µM (inactive) | GI50 (DU-145): > 100 µM (inactive) | GI50 (RXF 393): > 100 µM (inactive) | GI50 (SW-620): > 100 µM (inactive) | GI50 (SF-268): > 100 µM (inactive) | GI50 (CAKI-1): > 100 µM (inactive) | GI50 (NCI-H460): > 100 µM (inactive) | GI50 (M14): > 100 µM (inactive)

C[C@]12CC[C@H](O)C[C@@H]1CC[C@@H]1[C@@H]2CC[C@]2(C)[C@@H](c3cc(C(F)(F)F)[nH]n3)CC[C@@H]12
GI50 (SF-295): 4.23 µM (inactive) | GI50 (NCI-H522): > 22.5 µM (inactive) | GI50 (LOX IMVI): 6.11 µM (inactive) | GI50 (OVCAR-5): 10.5 µM (inactive) | GI50 (BT-549): 8.39 µM (inactive) | GI50 (KM12): 10.1 µM (inactive) | GI50 (HL-60): 0.908 µM (active) | GI50 (MDA-MB-231): 6.67 µM (inactive) | GI50 (Hs-578T): > 35.6 µM (inactive) | GI50 (COLO 205): 4.13 µM (inactive) | GI50 (NCI/ADR-RES): 6.32 µM (inactive) | GI50 (HOP-62): 7.38 µM (inactive) | GI50 (DU-145): 10.9 µM (inactive) | GI50 (RXF 393): 4.15 µM (inactive) | GI50 (SW-620): 12.1 µM (inactive) | GI50 (SF-268): > 33 µM (inactive) | GI50 (CAKI-1): 13.2 µM (inactive) | GI50 (NCI-H460): 3.18 µM (inactive) | GI50 (M14): 9.1 µM (inactive)

Cc1ccc(-c2n[nH]c(=O)n2NC(=O)c2ccccc2C(=O)O)cc1
GI50 (SF-295): > 100 µM (inactive) | GI50 (NCI-H522): > 100 µM (inactive) | GI50 (LOX IMVI): > 100 µM (inactive) | GI50 (BT-549): > 100 µM (inactive) | GI50 (KM12): > 100 µM (inactive) | GI50 (HL-60): > 100 µM (inactive) | GI50 (MDA-MB-231): > 100 µM (inactive) | GI50 (Hs-578T): > 100 µM (inactive) | GI50 (NCI/ADR-RES): > 100 µM (inactive) | GI50 (HOP-62): > 100 µM (inactive) | GI50 (DU-145): > 100 µM (inactive) | GI50 (RXF 393): > 100 µM (inactive) | GI50 (SW-620): > 100 µM (inactive) | GI50 (SF-268): > 100 µM (inactive) | GI50 (CAKI-1): > 100 µM (inactive) | GI50 (NCI-H460): > 100 µM (inactive) | GI50 (M14): > 100 µM (inactive)

Clc1ccc(C(c2ccc(Cl)cc2)c2cncnc2)cc1
GI50 (SF-295): 17.9 µM (inactive) | GI50 (NCI-H522): 17.2 µM (inactive) | GI50 (LOX IMVI): 15.8 µM (inactive) | GI50 (OVCAR-5): 15.6 µM (inactive) | GI50 (BT-549): 13.9 µM (inactive) | GI50 (KM12): 18.3 µM (inactive) | GI50 (HL-60): 22.9 µM (inactive) | GI50 (MDA-MB-231): 17.7 µM (inactive) | GI50 (Hs-578T): 18.3 µM (inactive) | GI50 (COLO 205): 17.1 µM (inactive) | GI50 (NCI/ADR-RES): 18.7 µM (inactive) | GI50 (HOP-62): 17.2 µM (inactive) | GI50 (DU-145): 17.5 µM (inactive) | GI50 (RXF 393): 12.6 µM (inactive) | GI50 (SF-268): 17.8 µM (inactive) | GI50 (CAKI-1): 18.6 µM (inactive) | GI50 (NCI-H460): 17.6 µM (inactive) | GI50 (M14): 16.4 µM (inactive)

COC(=O)C1=C(C)NC(C)=C(C(=O)OC)C1c1ccc(/[N+]([O-])=C/c2ccccc2)cc1
GI50 (SF-295): 46.9 µM (inactive) | GI50 (NCI-H522): 14.6 µM (inactive) | GI50 (LOX IMVI): 45 µM (inactive) | GI50 (OVCAR-5): > 100 µM (inactive) | GI50 (BT-549): 18.8 µM (inactive) | GI50 (KM12): > 100 µM (inactive) | GI50 (HL-60): 15.1 µM (inactive) | GI50 (MDA-MB-231): 41.1 µM (inactive) | GI50 (Hs-578T): 41.3 µM (inactive) | GI50 (COLO 205): 19 µM (inactive) | GI50 (NCI/ADR-RES): 66.5 µM (inactive) | GI50 (HOP-62): 83.2 µM (inactive) | GI50 (DU-145): > 100 µM (inactive) | GI50 (RXF 393): 19.7 µM (inactive) | GI50 (SW-620): 20 µM (inactive) | GI50 (SF-268): > 100 µM (inactive) | GI50 (CAKI-1): 18.7 µM (inactive) | GI50 (NCI-H460): 66.8 µM (inactive) | GI50 (M14): 18.1 µM (inactive)

COc1ccccc1/C=C1\Sc2scc(-c3ccc(O)c(O)c3)[n+]2C1=O
GI50 (SF-295): 24.9 µM (inactive) | GI50 (NCI-H522): 8.99 µM (inactive) | GI50 (LOX IMVI): 18 µM (inactive) | GI50 (OVCAR-5): 26.5 µM (inactive) | GI50 (BT-549): 17.8 µM (inactive) | GI50 (KM12): 32 µM (inactive) | GI50 (HL-60): 2.28 µM (inactive) | GI50 (MDA-MB-231): 20 µM (inactive) | GI50 (Hs-578T): 88.3 µM (inactive) | GI50 (COLO 205): 19.6 µM (inactive) | GI50 (NCI/ADR-RES): 27.3 µM (inactive) | GI50 (HOP-62): 29.7 µM (inactive) | GI50 (DU-145): 21.4 µM (inactive) | GI50 (RXF 393): 17.7 µM (inactive) | GI50 (SW-620): 15.9 µM (inactive) | GI50 (SF-268): 58.9 µM (inactive) | GI50 (CAKI-1): 15.1 µM (inactive) | GI50 (NCI-H460): 18.8 µM (inactive) | GI50 (M14): 15.1 µM (inactive)

CC(C)C[C@H](NC(=O)[C@H](Cc1ccc(F)cc1)NC(=O)c1ccccn1)B(O)O
GI50 (SF-295): < 0.01 µM (active) | GI50 (NCI-H522): < 0.01 µM (active) | GI50 (LOX IMVI): < 0.01 µM (active) | GI50 (OVCAR-5): < 0.01 µM (active) | GI50 (BT-549): < 0.01 µM (active) | GI50 (KM12): < 0.01 µM (active) | GI50 (HL-60): < 0.01 µM (active) | GI50 (MDA-MB-231): < 0.01 µM (active) | GI50 (Hs-578T): < 0.01 µM (active) | GI50 (COLO 205): < 0.01 µM (active) | GI50 (NCI/ADR-RES): < 0.01 µM (active) | GI50 (HOP-62): < 0.01 µM (active) | GI50 (DU-145): < 0.01 µM (active) | GI50 (RXF 393): < 0.01 µM (active) | GI50 (SW-620): < 0.01 µM (active) | GI50 (SF-268): < 0.01 µM (active) | GI50 (CAKI-1): < 0.01 µM (active) | GI50 (NCI-H460): < 0.01 µM (active) | GI50 (M14): < 0.01 µM (active)
